The values below come from patent publication US7109193B2, “Tricyclic diazepines tocolytic oxytocin receptor antagonists” (Wyeth, priority 2001, dated 2006).

The assay has as its target T1, human vasopressin V2 receptor subtype (Homo sapiens, UniProt P30518).
T1 construct: host or cells: CHO cells (pZeoSV vector)
Briefly: Vasopressin binding in Chinese Hamster Ovary cell membranes expressing human vasopressin V2 subtype receptors. The following applies: CHO cell membranes, [3H]arginine vasopressin; for IC50: values in parentheses; for inhibition at 0.1 µM: 100 nM, values without parentheses. In a few lines:
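Radioligand displacement on membranes from CHO cells stably expressing human V2 receptor, 25 to 50 μg protein/well, in 50 mM Tris-HCl pH 7.4 with MgCl2, BSA and protease inhibitors. [^3H]arginine vasopressin (8 nM working solution) incubated 60 min at room temperature; bound label measured by filtration and scintillation counting.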

Counter-ions that a name gives are not always drawn.

T1 sequence (P30518 whole entry): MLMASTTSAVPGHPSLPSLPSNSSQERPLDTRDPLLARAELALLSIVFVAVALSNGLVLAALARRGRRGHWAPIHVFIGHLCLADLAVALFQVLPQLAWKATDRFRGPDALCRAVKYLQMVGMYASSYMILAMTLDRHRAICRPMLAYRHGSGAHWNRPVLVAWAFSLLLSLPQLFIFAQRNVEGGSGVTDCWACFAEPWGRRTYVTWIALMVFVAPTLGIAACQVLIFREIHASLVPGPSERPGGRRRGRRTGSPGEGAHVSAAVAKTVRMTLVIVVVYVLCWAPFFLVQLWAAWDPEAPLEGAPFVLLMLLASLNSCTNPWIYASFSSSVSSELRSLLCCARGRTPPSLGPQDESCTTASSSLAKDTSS

For the compound `Cc1cc(C(=O)N2Cc3ccc(C(=O)N4CCN(C)CC4)n3Cc3ccccc32)ccc1-c1ccccc1C(F)(F)F` [Example 2, (4-Methyl-piperazin-1-yl)-[10-(2-methyl-2′-trifluoromethyl-[1,1′-biphenyl]-4-yl)-carbonyl]-10,11-dihydro-5H-pyrrolo[2,1-c][1,4]benzodiazepin-3-yl-methanone], the IC50 came to 1760 nM.
For `Cc1cc(C(=O)N2Cc3ccc(C(=O)N4CCN(CCCN(C)C)CC4)n3Cc3ccccc32)ccc1-c1ccccc1C(F)(F)F` [Example 4, [4-(3-Dimethylaminopropyl)-piperazin-1-yl]-[10-(2-methyl-2′-trifluoromethyl-[1,1′-biphenyl]-4-yl)carbonyl]-[10,11-dihydro-5H-pyrrolo[2,1-c][1,4]benzodiazepin-3-yl]-methanone], the inhibition at 0.1 µM was 24%.
With `Cc1cc(C(=O)N2Cc3ccc(C(=O)N4CCNCC4)n3Cc3ccccc32)ccc1-c1ccccc1C(F)(F)F` [Example 7, 10,11-Dihydro-10-[[2-methyl-2′-trifluoromethyl-[1,1′-biphenyl]-4-yl]carbonyl]-3-(1-piperazinylcarbonyl)-5H-pyrrolo[2,1-c][1,4]benzodiazepine hydrochloride salt], the concentration for half-maximal inhibition (IC50) came out at 2460 nM.
On to `Cc1cc(C(=O)N2Cc3ccc(C(=O)NC(=N)N)n3Cc3ccccc32)ccc1-c1ccccc1C(F)(F)F` [Example 8, N-[(10-{[2-methyl-2′-(trifluoromethyl)[1,1′-biphenyl]-4-yl]carbonyl}-10,11-dihydro-5H-pyrrolo[2,1-c][1,4]benzodiazepin-3-yl)carbonyl]guanidine], for which the IC50 stood at 1470 nM.
Still for that read-out and setting: then `COc1cc(-c2ccccc2C)ccc1C(=O)N1Cc2ccc(C(=O)N(C)CCCN(C)C)n2Cc2ccccc21` [Example 11, N-Methyl-N-[3-(dimethylamino)propyl]-10-[(3-methoxy-2′-methyl[1,1′-biphenyl]-4-yl)carbonyl]-10,11-dihydro-5H-pyrrolo[2,1-c][1,4]benzodiazepine-3-carboxamide], with 1350 nM.
Same read-out and setting: to `COc1cc(-c2ccccc2F)c(Cl)cc1C(=O)N1Cc2cccn2Cc2ccccc21` [Example 18B, 10-{[6-Chloro-3-methoxy-2′-fluoro-[1,1′-biphenyl]-4-yl]carbonyl}-10,11-dihydro-5H-pyrrolo[2,1-c][1,4]benzodiazepine] belongs 189 nM.
Same read-out and setting: to `COc1cc(C(=O)N2Cc3ccc(C(=O)N4CCC[C@H]4CN4CCCC4)n3Cc3ccccc32)ccc1-c1ccccc1C(F)(F)F` [Example 20, {[10-(2-Methoxy)-2′-trifluoromethyl-[1,1′-biphenyl]-4-yl]carbonyl}-[(2S)-[(2-pyrrolidin-1-yl)methyl]pyrrolidin-1-yl]-10,11-dihydro-5H-pyrrolo[2,1-c][1,4]benzodiazepin-3-yl-methanone] belongs 4360 nM; to `COc1cc(C(=O)N2Cc3ccc(C(=O)N(C)CCCN(C)C)n3Cc3ccccc32)ccc1-c1ccccc1C(F)(F)F` [Example 21, N-Methyl-[N-(3-dimethylamino)propyl]-10-{[2-methoxy-2′-trifluoromethyl-[1,1′-biphenyl]-4-yl]carbonyl}-10,11-dihydro-5H-pyrrolo[2,1-c][1,4]benzodiazepin-3-carboxamide], 1160 nM.
For the compound `COc1cc(C(=O)N2Cc3ccc(C(=O)N(C)CCN(C)C)n3Cc3ccccc32)ccc1-c1ccccc1C(F)(F)F` [Example 22, N-Methyl-[N-(2-dimethylamino)ethyl]-10-{[2-methoxy-2′-trifluoromethyl-[1,1′-biphenyl]-4-yl]carbonyl}-10,11-dihydro-5H-pyrrolo[2,1-c][1,4]benzodiazepine-3-carboxamide], the 50% inhibitory concentration (IC50) is 1430 nM.
On the same count and under the same terms, to `O=C(c1ccc(-c2cccc3ccccc23)cc1Cl)N1Cc2cccn2Cc2ccccc21` [Example 24, [2-Chloro-4-(naphthalen-1-yl)phenyl][10,11-dihydro-5H-pyrrolo[2,1-c][1,4]benzodiazepin-10-yl]methanone] belongs 4.7 nM; to `Cc1ccc(-c2ccc(C(=O)N3Cc4cccn4Cc4ccccc43)cc2)c2ccccc12` [Example 25, [4-(4-Methyl-naphthalen-1-yl)phenyl][10,11-dihydro-5H-pyrrolo[2,1-c][1,4]benzodiazepin-10-yl]methanone], 11.3 nM; to `COc1cc(C(=O)N2Cc3cccn3Cc3ccccc32)ccc1-n1c(C)ccc1C` [Example 27, [4-(2,5-Dimethyl-1-H-pyrrol-1-yl)-3-methoxy-phenyl][10,11-dihydro-5H-pyrrolo[2,1-c][1,4]benzodiazepin-10-yl]methanone], 149 nM.
On the same count and under the same terms, then `O=C(c1ccc(-c2cccc3ccccc23)nc1)N1Cc2cccn2Cc2ccccc21` [Example 28, [6-(Naphthalen-1-yl)-pyridin-3-yl]-[10,11-dihydro-5H-pyrrolo[2,1-c][1,4]benzodiazepin-10-yl]methanone], with 58.8 nM.
The same measure, in the same setting: then `COc1cc(-c2ccccc2C(F)(F)F)c(OC)cc1C(=O)N1Cc2cccn2Cc2ccccc21` [Example 32, 10-{[3,6-Dimethoxy-2′-trifluoromethyl-[1,1′-biphenyl]-4-yl]carbonyl}-10,11-dihydro-5H-pyrrolo[2,1-c][1,4]benzodiazepine], with 605 nM; and `COc1cc(-c2ccccc2Cl)c(Cl)cc1C(=O)N1Cc2ccc(C(=O)N(C)C3CCN(C)CC3)n2Cc2ccccc21` [Example 43, 10-[(2′-Chloro-6-chloro-3-methoxy-[1,1′-biphenyl]-4-yl)carbonyl]-N-methyl-N-(1-methylpiperidin-4-yl)-10,11-dihydro-5H-pyrrolo[2,1-c][1,4]benzodiazepine-3-carboxamide], with 409 nM; and `COc1cc(-c2ccccc2C)c(Cl)cc1C(=O)N1Cc2ccc(C(=O)N3CCN(C)CC3)n2Cc2ccccc21` [Example 47, {10-[(6-Chloro-3-methoxy-2′-methyl[1,1′-biphenyl]-4-yl)carbonyl]-10,11-dihydro-5H-pyrrolo[2,1-c][1,4]benzodiazepin-3-yl}(4-methyl-1-piperazinyl)methanone], with 722 nM.
Take `COc1ccccc1-c1ccc(C(=O)N2Cc3ccc(C(=O)N4CCN(C)CC4)n3Cc3ccccc32)cc1` [Example 48, {10-[(2′-Methoxy[1,1′-biphenyl]-4-yl)carbonyl]-10,11-dihydro-5H-pyrrolo[2,1-c][1,4]benzodiazepin-3-yl}(4-methyl-1-piperazinyl)methanone]: the IC50 amounted to 700 nM.
On the same count and under the same terms, to `Cc1cc(C(=O)N2Cc3ccc(C(=O)N4CCCN(C)CC4)n3Cc3ccccc32)ccc1-c1ccccc1C(F)(F)F` [Example 59, (4-Methyl-1,4-diazepan-1-yl)(10-{[2-methyl-2′-(trifluoromethyl)[1,1′-biphenyl]-4-yl]carbonyl}-10,11-dihydro-5H-pyrrolo[2,1-c][1,4]benzodiazepin-3-yl)methanone] belongs 2310 nM; to `COc1cc(-c2ccccc2C)c(Cl)cc1C(=O)N1Cc2ccc(C(=O)N3CCCN(C)CC3)n2Cc2ccccc21` [Example 60, {10-[(6-Chloro-3-methoxy-2′-methyl[1,1′-biphenyl]-4-yl)carbonyl]-10,11-dihydro-5H-pyrrolo[2,1-c][1,4]benzodiazepin-3-yl}(4-methyl-1,4-diazepan-1-yl)methanone], 1200 nM; to `COc1ccccc1-c1ccc(C(=O)N2Cc3ccc(C(=O)N4CCCN(C)CC4)n3Cc3ccccc32)cc1` [Example 61, {10-[(2′-Methoxy[1,1′-biphenyl]-4-yl)carbonyl]-10,11-dihydro-5H-pyrrolo[2,1-c][1,4]benzodiazepin-3-yl}(4-methyl-1,4-diazepan-1-yl)methanone], 745 nM.
Consider `COc1cccc(-c2cc(OC)c(C(=O)N3Cc4ccc(C(=O)NCCCN(C)C)n4Cc4ccccc43)cc2Cl)c1` [Example 79, 10-[(6-Chloro-3,3′-dimethoxy[1,1′-biphenyl]-4-yl)carbonyl]-N-[3-(dimethylamino)propyl]-10,11-dihydro-5H-pyrrolo[2,1-c][1,4]benzodiazepine-3-carboxamide], for which the inhibition at 0.1 µM is 7%.
The same measure, in the same setting: then `COc1cc(C(=O)N2Cc3ccc(C(=O)NCCCN(C)C)n3Cc3ccccc32)ccc1-c1cccc2ccccc12` [Example 80, N-[3-(Dimethylamino)propyl]-10-[3-methoxy-4-(1-naphthyl)benzoyl]-10,11-dihydro-5H-pyrrolo[2,1-c][1,4]benzodiazepine-3-carboxamide], with 43%; and `COc1ccccc1-c1ccc(C(=O)N2Cc3ccc(C(=O)NCCCN(C)C)n3Cc3ccccc32)cc1OC` [Example 81, 10-[(2,2′-Dimethoxy[1,1′-biphenyl]-4-yl)carbonyl]-N-[3-(dimethylamino)propyl]-10,11-dihydro-5H-pyrrolo[2,1-c][1,4]benzodiazepine-3-carboxamide], with 21%.
The same measure, in the same setting: then `COc1cccc(-c2ccc(C(=O)N3Cc4ccc(C(=O)NCCCN(C)C)n4Cc4ccccc43)cc2OC)c1` [Example 82, 10-[(2,3′-Dimethoxy[1,1′-biphenyl]-4-yl)carbonyl]-N-[3-(dimethylamino)propyl]-10,11-dihydro-5H-pyrrolo[2,1-c][1,4]benzodiazepine-3-carboxamide], with 10%.
Same read-out and setting: then `CN(C)CCCNC(=O)c1ccc2n1Cc1ccccc1N(C(=O)c1ccc(-c3cccc4ccccc34)cc1Cl)C2` [Example 83, 10-[2-Chloro-4-(1-naphthyl)benzoyl]-N-[3-(dimethylamino)propyl]-10,11-dihydro-5H-pyrrolo[2,1-c][1,4]benzodiazepine-3-carboxamide], with 18%.
Take `Cc1cc(C(=O)N2Cc3ccc(C(=O)N(C)CCN(C)C)n3Cc3ccccc32)ccc1-c1ccccc1C(F)(F)F` [Example 85, N-[2-(Dimethylamino)ethyl]-N-methyl-10-{[2-methyl-2′-(trifluoromethyl)[1,1′-biphenyl]-4-yl]carbonyl}-10,11-dihydro-5H-pyrrolo[2,1-c][1,4]benzodiazepine-3-carboxamide]: the 50% inhibitory concentration (IC50) amounted to 3130 nM.

Broadly, the IC50 is the point on the concentration scale where inhibition reaches its midpoint. In general, inhibition refers to the share of the control response that was lost under treatment.
